Assay results: the NIST ThermoML archive (doi:10.1016/j.jct.2006.10.011)

Test: molar heat capacity at constant pressure
Details: 101.33 kPa, Crystal

O [water]
Details | molar heat capacity at constant pressure [J/K/mol]
0.4719 K, Low-temperature adiabatic | 4.834e-06
0.4841 K, Low-temperature adiabatic | 2.38e-05
0.5 K, adiabatic | 2.28e-05
0.5191 K, Low-temperature adiabatic | 3.571e-05
0.5328 K, Low-temperature adiabatic | 2.99e-05
0.5456 K, Low-temperature adiabatic | 3.104e-05
0.5713 K, Low-temperature adiabatic | 3.382e-05
0.5859 K, Low-temperature adiabatic | 3.177e-05
0.5999 K, Low-temperature adiabatic | 3.883e-05
0.6287 K, Low-temperature adiabatic | 4.342e-05
0.6451 K, Low-temperature adiabatic | 3.414e-05
0.6608 K, Low-temperature adiabatic | 4.582e-05
0.6935 K, Low-temperature adiabatic | 5.952e-05
0.7107 K, Low-temperature adiabatic | 6.565e-05
0.7283 K, Low-temperature adiabatic | 7.207e-05
0.764 K, Low-temperature adiabatic | 7.817e-05
0.783 K, Low-temperature adiabatic | 8.554e-05
0.8021 K, Low-temperature adiabatic | 9.413e-05
0.8407 K, Low-temperature adiabatic | 0.0001158
0.8618 K, Low-temperature adiabatic | 0.0001219
0.8828 K, Low-temperature adiabatic | 0.0001311
0.9245 K, Low-temperature adiabatic | 0.0001506
0.9708 K, Low-temperature adiabatic | 0.000169
1 K, adiabatic | 0.0001825
1.015 K, Low-temperature adiabatic | 0.0001986
1.04 K, Low-temperature adiabatic | 0.0002059
1.066 K, Low-temperature adiabatic | 0.0002218
1.116 K, Low-temperature adiabatic | 0.0002582
1.146 K, Low-temperature adiabatic | 0.0002671
1.173 K, Low-temperature adiabatic | 0.0002946
1.228 K, Low-temperature adiabatic | 0.0003386
1.261 K, Low-temperature adiabatic | 0.0003738
1.292 K, Low-temperature adiabatic | 0.0004076
1.352 K, Low-temperature adiabatic | 0.0004587
1.388 K, Low-temperature adiabatic | 0.0004915
1.485 K, Low-temperature adiabatic | 0.0006013
1.5 K, adiabatic | 0.0006167
1.522 K, Low-temperature adiabatic | 0.0006394
1.561 K, Low-temperature adiabatic | 0.0006901
1.634 K, Low-temperature adiabatic | 0.0007957
1.675 K, Low-temperature adiabatic | 0.0008489
1.716 K, Low-temperature adiabatic | 0.0009132
1.731 K, Low-temperature adiabatic | 0.0009652
1.798 K, Low-temperature adiabatic | 0.001053
1.816 K, Low-temperature adiabatic | 0.001109
1.843 K, Low-temperature adiabatic | 0.001123
1.887 K, Low-temperature adiabatic | 0.001207
1.904 K, Low-temperature adiabatic | 0.00125
1.977 K, Low-temperature adiabatic | 0.00139
1.998 K, Low-temperature adiabatic | 0.001434
2 K, adiabatic | 0.001465
2.027 K, Low-temperature adiabatic | 0.001484
2.076 K, Low-temperature adiabatic | 0.001598
2.095 K, Low-temperature adiabatic | 0.001659
2.175 K, Low-temperature adiabatic | 0.00184
2.2 K, Low-temperature adiabatic | 0.001902
2.304 K, Low-temperature adiabatic | 0.002208
2.421 K, Low-temperature adiabatic | 0.002544
2.5 K, adiabatic | 0.002874
2.536 K, Low-temperature adiabatic | 0.002963
2.664 K, Low-temperature adiabatic | 0.003432
2.791 K, Low-temperature adiabatic | 0.003994
2.932 K, Low-temperature adiabatic | 0.004612
3 K, adiabatic | 0.004998
3.073 K, Low-temperature adiabatic | 0.005384
3.228 K, Low-temperature adiabatic | 0.006206
3.381 K, Low-temperature adiabatic | 0.007213
3.5 K, adiabatic | 0.008013
3.552 K, Low-temperature adiabatic | 0.008311
3.719 K, Low-temperature adiabatic | 0.00968
3.906 K, Low-temperature adiabatic | 0.01117
4 K, adiabatic | 0.01212
4.089 K, Low-temperature adiabatic | 0.01302
4.294 K, Low-temperature adiabatic | 0.01503
4.498 K, Low-temperature adiabatic | 0.01756
4.5 K, adiabatic | 0.01755
4.723 K, Low-temperature adiabatic | 0.02031
